PubChem BioAssay AID330 (DTP/NCI, 2004)
Where “and” joins values, the source holds several entries; their conditions need not be identical. Equal entries are not always repeated. Toxic doses and inconclusive results are not listed. Rule for the calls: active = survival T/C of 150% or more; inactive = T/C below 125% in these data.

System: P388 leukemia ip, CD2F1 mice, survival T/C
Test: NCI In Vivo Anticancer Drug Screen. Data for tumor model P388 Leukemia (intraperitoneal) in CD2F1 (CDF1) mice
Conditions: endpoint: median survival time, higher = longer survival
How it was run: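 Mice carrying the transplanted tumor received test compound or vehicle. Survival was recorded in each group, and the value is the treated-group measurement divided by that of the vehicle-treated control group.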

[1] = dose: 50.0 mg/kg/injection, schedule: Q01DX005 (ip), vehicle: saline with Tween-80
[2] = dose: 100.0 mg/kg/injection, schedule: Q01DX005 (ip), vehicle: saline with Tween-80
[3] = dose: 200.0 mg/kg/injection, schedule: Q01DX005 (ip), vehicle: saline with Tween-80
[4] = dose: 50.0 mg/kg/injection, schedule: Q01DX009 (ip), vehicle: saline
[5] = dose: 100.0 mg/kg/injection, schedule: Q01DX009 (ip), vehicle: saline
[6] = dose: 200.0 mg/kg/injection, schedule: Q01DX009 (ip), vehicle: saline
[7] = dose: 100.0 mg/kg/injection, schedule: Q04DX003 (ip), vehicle: Klucel (hydroxypropylcellulose) (HPC)
[8] = dose: 200.0 mg/kg/injection, schedule: Q04DX003 (ip), vehicle: Klucel (hydroxypropylcellulose) (HPC)
[9] = dose: 400.0 mg/kg/injection, schedule: Q04DX003 (ip), vehicle: Klucel (hydroxypropylcellulose) (HPC)
[10] = dose: 60.0 mg/kg/injection, schedule: Q01DX005 (ip), vehicle: saline with Tween-80
[11] = dose: 120.0 mg/kg/injection, schedule: Q01DX005 (ip), vehicle: saline with Tween-80
[12] = dose: 240.0 mg/kg/injection, schedule: Q01DX005 (ip), vehicle: saline with Tween-80
[13] = dose: 25.0 mg/kg/injection, schedule: Q01DX009 (ip), vehicle: saline with Tween-80
[14] = dose: 50.0 mg/kg/injection, schedule: Q01DX009 (ip), vehicle: saline with Tween-80
[15] = dose: 100.0 mg/kg/injection, schedule: Q01DX009 (ip), vehicle: saline with Tween-80
[16] = dose: 200.0 mg/kg/injection, schedule: Q01DX009 (ip), vehicle: saline with Tween-80
[17] = dose: 50.0 mg/kg/injection, schedule: Q01DX005 (ip), vehicle: Klucel (hydroxypropylcellulose) (HPC)
[18] = dose: 100.0 mg/kg/injection, schedule: Q01DX005 (ip), vehicle: Klucel (hydroxypropylcellulose) (HPC)
[19] = dose: 200.0 mg/kg/injection, schedule: Q01DX005 (ip), vehicle: Klucel (hydroxypropylcellulose) (HPC)
[20] = dose: 12.5 mg/kg/injection, schedule: Q01DX009 (ip), vehicle: saline with Tween-80

Measured: T/C

CC(C)(C#N)C#N
inactive: dose: 25.0 mg/kg/injection, schedule: Q04DX003 (ip), vehicle: saline with Tween-80 100 % of control | dose: 50.0 mg/kg/injection, schedule: Q04DX003 (ip), vehicle: saline with Tween-80 100 % of control

O=c1c2ccccc2ncn1Cc1ccco1
inactive: [1] 98 % of control | [2] 98 % of control | [3] 99 % of control

CCn1c(=O)c2[nH]c(Cl)nc2n(CCCl)c1=O
inactive: dose: 16.0 mg/kg/injection, schedule: Q01DX009 (ip), vehicle: Klucel (hydroxypropylcellulose) (HPC) 102 % of control and 118 % of control | dose: 32.0 mg/kg/injection, schedule: Q01DX009 (ip), vehicle: Klucel (hydroxypropylcellulose) (HPC) 111 % of control and 117 % of control | dose: 64.0 mg/kg/injection, schedule: Q01DX009 (ip), vehicle: Klucel (hydroxypropylcellulose) (HPC) 122 % of control | dose: 128.0 mg/kg/injection, schedule: Q01DX009 (ip), vehicle: Klucel (hydroxypropylcellulose) (HPC) 110 % of control

O/N=C1\CCC2CCCCC2C1 (stereo unspecified)
inactive: [4] 103 % of control | [5] 103 % of control | [6] 104 % of control

COC(=O)C1CC(c2ccccc2)N(C(C)(C)C)O1 (stereo unspecified)
inactive: dose: 100.0 mg/kg/injection, schedule: Q04DX002 (ip), vehicle: saline with Tween-80 97 % of control | dose: 200.0 mg/kg/injection, schedule: Q04DX002 (ip), vehicle: saline with Tween-80 100 % of control | dose: 400.0 mg/kg/injection, schedule: Q04DX002 (ip), vehicle: saline with Tween-80 100 % of control

O=C(Nc1ccccc1)Sc1nc2ccccc2s1
inactive: [4] 102 % of control | [5] 104 % of control | [6] 104 % of control

O=[N+]([O-])c1ccc(C(Cl)C2(Br)C=c3ccccc3=C2)cc1 (stereo unspecified)
inactive: [7] 100 % of control | [8] 100 % of control | [9] 95 % of control

O=C1CCC2C(C3SCCCS3)=CCN12 (stereo unspecified)
inactive: [10] 97 % of control | [11] 95 % of control | [12] 101 % of control

CS(=O)(=O)c1cc(=O)[nH]c(=O)[nH]1
inactive: [13] 90 % of control | [14] 95 % of control | [15] 100 % of control | [16] 95 % of control

Nc1ncnc2nc(Br)[nH]c12
inactive: [17] 111 % of control | [18] 95 % of control | [19] 106 % of control

CC(c1ccccc1)C1CC1 (stereo unspecified)
inactive: [14] 103 % of control | [15] 107 % of control | [16] 98 % of control

COC(=O)c1ccccc1NC(=O)N1CC1
inactive: dose: 50.0 mg/kg/injection, schedule: Q01DX005 (ip), vehicle: DMSO 105 % of control | dose: 100.0 mg/kg/injection, schedule: Q01DX005 (ip), vehicle: DMSO 118 % of control

O=C(/C=C/c1c(-c2ccccc2)[nH]c2ccccc12)c1ccccc1O
inactive: dose: 7.5 mg/kg/injection, schedule: Q01DX005 (ip), vehicle: saline with Tween-80 106 % of control | dose: 15.0 mg/kg/injection, schedule: Q01DX005 (ip), vehicle: saline with Tween-80 92 % of control | dose: 30.0 mg/kg/injection, schedule: Q01DX005 (ip), vehicle: saline with Tween-80 90 % of control | [12] 88 % of control

COc1cc(/C(C)=C\CP(=O)(c2ccccc2)c2ccccc2)c(C(=O)O)cc1C
inactive: [1] 106 % of control | [2] 106 % of control | [3] 103 % of control

[C-]#[N+]C([N+]#[C-])=C(C)OCC
inactive: dose: 6.25 mg/kg/injection, schedule: Q01DX009 (ip), vehicle: saline with Tween-80 98 % of control | [20] 89 % of control | [13] 105 % of control | [5] 101 % of control

COc1cccc(C(Nc2nncs2)Nc2nncs2)c1
inactive: [10] 97 % of control | [11] 97 % of control | [12] 122 % of control

ClC1(Cl)C(=C=C2C3CC4CC(C3)CC2C4)C12C1CC3CC(C1)CC2C3 (stereo unspecified)
inactive: dose: 25.0 mg/kg/injection, schedule: Q01DX009 (ip), vehicle: Klucel (hydroxypropylcellulose) (HPC) 100 % of control | dose: 50.0 mg/kg/injection, schedule: Q01DX008 (ip), vehicle: Klucel (hydroxypropylcellulose) (HPC) 101 % of control | dose: 100.0 mg/kg/injection, schedule: Q01DX008 (ip), vehicle: Klucel (hydroxypropylcellulose) (HPC) 101 % of control | dose: 100.0 mg/kg/injection, schedule: Q01DX009 (ip), vehicle: Klucel (hydroxypropylcellulose) (HPC) 94 % of control | dose: 200.0 mg/kg/injection, schedule: Q01DX008 (ip), vehicle: Klucel (hydroxypropylcellulose) (HPC) 87 % of control

ClC1(Cl)CC1[Se]c1ccccc1 (stereo unspecified)
inactive: [4] 100 % of control | [5] 102 % of control | [6] 99 % of control

NC(N)=NS(=O)(=O)c1ccc(NCc2c3ccccc3nc3cc(Cl)ccc23)cc1
active: [10] 170 % of control
inactive: [11] 121 % of control | [12] 116 % of control

O=C1OCCOCCOCCOCCOCCOCCOC(=O)c2cccc1n2
inactive: [7] 100 % of control | [8] 100 % of control | [9] 100 % of control

CC1(C)C=Cc2c(cc(O)c3c(=O)c4cccnc4oc23)O1
inactive: [17] 90 % of control | [18] 102 % of control | [19] 90 % of control

O=C1C2C3(CCl)C1C23CCl (stereo unspecified)
inactive: dose: 7.5 mg/kg/injection, schedule: Q01DX005 (ip), vehicle: Klucel (hydroxypropylcellulose) (HPC) 108 % of control | dose: 15.0 mg/kg/injection, schedule: Q01DX005 (ip), vehicle: Klucel (hydroxypropylcellulose) (HPC) 104 % of control | dose: 30.0 mg/kg/injection, schedule: Q01DX005 (ip), vehicle: Klucel (hydroxypropylcellulose) (HPC) 108 % of control

CC(C)=C(OS(=O)(=O)C(F)(F)F)[Si](C)(C)C
inactive: [14] 99 % of control | [15] 105 % of control | [16] 105 % of control

CCSc1nc(N)c(Br)c(Sc2nc(N)nc3nc[nH]c23)n1
inactive: [1] 103 % of control | [2] 101 % of control | [3] 97 % of control

O=C(N/N=C/c1ccccc1Cl)C(=O)Nc1cccc(C(F)(F)F)c1
inactive: [17] 95 % of control | [18] 96 % of control | [19] 99 % of control

O=S(=O)(O)c1cccc(/C(=N\Nc2ccccn2)c2ccccn2)c1
inactive: [14] 100 % of control | [15] 102 % of control | [16] 100 % of control

CCC/C(=N\NC(=S)N1CCCCCC1)c1ccccn1
inactive: dose: 25.0 mg/kg/injection, schedule: Q01DX005 (ip), vehicle: saline with Tween-80 117 % of control | [1] 124 % of control

COc1ccc(OC)c(C=C(C(C)=O)C(C)=O)c1
inactive: dose: 25.0 mg/kg/injection, schedule: Q01DX009 (ip), vehicle: other 111 % of control | dose: 50.0 mg/kg/injection, schedule: Q01DX009 (ip), vehicle: other 105 % of control | dose: 100.0 mg/kg/injection, schedule: Q01DX009 (ip), vehicle: other 109 % of control | dose: 200.0 mg/kg/injection, schedule: Q01DX009 (ip), vehicle: other 108 % of control | dose: 400.0 mg/kg/injection, schedule: Q01DX009 (ip), vehicle: other 115 % of control

CC1CC(C)CN(C)C1 (stereo unspecified)
inactive: dose: 50.0 mg/kg/injection, schedule: Q01DX005 (ip), vehicle: saline 100 % of control | dose: 100.0 mg/kg/injection, schedule: Q01DX005 (ip), vehicle: saline 100 % of control

COC(=O)C1(C2(C(=O)OC)NC(=S)NC(=O)C2C#N)CCCC1=O (stereo unspecified)
inactive: [10] 108 % of control | [11] 105 % of control | [12] 105 % of control

O=C1OC(=O)[C@H]2[C@@H]1[C@H]1C=C[C@@H]2OC1=O
inactive: [20] 123 % of control | dose: 12.5 mg/kg/injection, schedule: Q01DX009 (ip), vehicle: saline 103 % of control | [13] 108 % of control | dose: 25.0 mg/kg/injection, schedule: Q01DX009 (ip), vehicle: saline 100 % of control | [14] 105 % of control | [4] 99 % of control and 92 % of control | [15] 101 % of control | [5] 100 % of control | [6] 98 % of control

Cc1ccc(-c2nc3n(c2C=O)CCS3)cc1
inactive: dose: 100.0 mg/kg/injection, schedule: Q01DX001 (ip), vehicle: Klucel (hydroxypropylcellulose) (HPC) 112 % of control | dose: 200.0 mg/kg/injection, schedule: Q01DX001 (ip), vehicle: Klucel (hydroxypropylcellulose) (HPC) 106 % of control | dose: 400.0 mg/kg/injection, schedule: Q01DX001 (ip), vehicle: Klucel (hydroxypropylcellulose) (HPC) 98 % of control
